# Measured values from patent US10258599B2, “Compounds for use in the prevention or treatment of cancer” (SEMMELWEIS UNIVERSITY, priority 2014, dated 2019).
# Counter-ions that a name gives are not always drawn.
# Legend:
# [1] = test system: catecholaminergic neurons in the brain stem; settings: 1 mg/kg s.c.; cited from earlier work
# isolated rat brain stem [2] = assay: Release of labelled transmitter from isolated rat brain stem to electrical stimulation
# From the text: After a single washout the neurons work immediately on their normal activity level again. Since neurons respond to stimulation in an “all or none” manner, it is obvious that only a part of the neuronal population (the most excitable ones) respond to the electrical stimulation.
# This measurement can be made, mutatis mutandis, analogously to the measurement described in example 2 of EP1052259B1 (corresponding to WO2000026204A1). The method is described in [Knoll J, Knoll B and Miklya I Life Sci, 58, 2101-2114 (1996)].
# In short the brain stem (average weight about 800 mg) is isolated from rats and soaked in oxygenated Krebs' solution. Then solution of labelled neurotransmitter the release of which is measured is added to the preparation and allowed for uptake in an appropriate environment. If needed, MAO activity is inhibited.
# After uptake of the monoamine the brain stem is fixed in appropriate organ bath and washed in appropriate solution facilitating uptake and preventing metabolization of the monoamine.
# Fractionation of the perfusate is carried out periodically and, if the monoamine is radiolabelled, fractions are combined with a scintillation liquid.
# The organ is perfused with the buffer containing the compound(s) of the invention for sufficient time before electrostimulation.
# The brain stem is stimulated with rectangular pulses (e.g. 3 Hz, 1 ms 60 V) e.g. for 3 min. At the beginning of the experiment, the several, e.g. three resting periods of fraction were proceeded prior to the first stimulation. Thereafter it is allotted several, e.g. seven resting periods of fraction between stimulation.
# fibromyxosarcoma = assay: Longevity study: manifestation of subcutaneous fibromyxosarcoma (TMS effect); format: in vivo, rat; settings: for tumor manifestation suppressing (TMS) effect versus saline: Kaplan-Meier
# Description: (§1) The longevity study was performed on 200 male rats received from the breeding colony of the Semmelweis University. The rats were born at the end of February of 2010. After 2-month acclimation period the rats were divided randomly into 5 even groups. The longevity study started at the beginning of May 2010. Animals were observed until their natural deaths. The data in this study represent the changes observed until Oct. 31, 2012, since in the saline-treated group the last animal died on Oct. 31, 2012. As will be shown later a few rats in the enhancer-treated groups were still alive on Nov. 1, 2012.
# (§2) During the longevity study 5 rats were housed together in polycarbonate cages (height: 18 cm; wide: 42 cm; length: 44 cm) with a stainless steel on the top. Cage bedding was renewed 3 times a week (Monday, Wednesday and Friday). Bodyweight was measured once every month. The treatment started at the end of the second month of their age.
# We carefully observed the appearance of the subcutaneous tumor and followed the development of the tumor until death. Histological analysis was performed post mortem on several rats taken from each group as examples.
# The subcutaneous tumors developed in the rats were measured by the two largest diameters. After sacrificing the animals, the tumors were removed, photographs were taken. Tissues were fixed immediately after removal in 10% neutral formalin (in PBS, pH7.0) for 24 hours at room temperature, dehydrated and embedded in paraffin. 3-4 micrometer thick sections were cut and stained by hematoxylin and eosin (HE) as a routine.
# (§3) Significance in the performance between the groups in the shuttle box was evaluated by multi-factor analysis of variance (ANOVA). Significance regarding the span of time from tumor manifestation until death in rats and regarding aging related changes in bodyweight treated chronically with the enhancer substances was analyzed by One-way ANOVA. Statistical analysis of survival rate and tumor manifestation was performed by the Kaplan-Meier method.
# isolated rat brain stem [3] = settings: optimal concentration for the specific enhancer effect, 3-min collection period; review Knoll, 2005; cited from earlier work
# UW-228-2 cell line = assay: MTT proliferation assay, UW-228-2 medulloblastoma cells; format: cell-based, human; settings: UW-228-2, monotherapy, nine concentrations 10^-14 to 10^-6 M, 72 hours
# Description: (§4) Human medulloblastoma cell line, Daoy was purchased from ATCCC, UW-228 was obtained from the courtesy of Professor Silber (Univerity of Washington, Seattle, Wash., USA).
# (§5) Daoy and UW-228-2 cell lines were maintained in culture medium (each 500 ml Minimum Essential Medium Eagle, Alpha Modification (M8042, Sigma, St Louis, USA) with 50 ml FCS (Gibco), 40 mg Gentamicin (Sandoz), 5 ml sodium-pyruvate (S8636, Sigma, St Louis, USA), 5 ml non-essential-amino acid solution (M7145, Sigma, St Louis, USA), 10 ml L-glutamin (Sigma, St Louis, USA) at 37° C. in humified 5% CO2.
# (§6) In each well 3×10^3 Daoy or UW-228-2 cells were seeded in 96-well plates (Sarstedt), solved in 100 μl of its own medium with 10% FCS. 24 hours after seeding, cells were treated for 72 hours by drugs solved in further 100 μl medium. First, both cell lines were treated by (−)-BPAP and (−)-deprenil in monotherapy to determine its dose-effect curves in concentration of 10^−6, 10^−7, 10^−8, 10^−9, […], 10^−11, 10^−12, 10^−13 and 10^−14 M. In combined treatment 10^−3, 3.3×10^−4, […] and 3.7×10^−5 M of temozolomide (Schering Plough, USA) or 0.04, 0.2, 1, 5 μM of Cisplatin (Ebewe Pharma, Austria) or 0.04, 0.2, 1, 5 μM of etoposide (Ebewe Pharma, Austria) or 10^−7, 10^−6, 10^−5 and 10^−4 μM (UW228-2) or 0.001, 0.005, 0.025 and 0.125 μM (Daoy) of Vincristin (Richter Gedeon, Hungary) were applied in monotherapy or combined with 10^−13 or 10^−8 M of (−)-BPAP or (−)-deprenil.
# (§7) Cell proliferation was evaluated by MTT (3-(4,5-Dimethylthiazol-2-yl)-2,5-diphenyltetrazolium bromide) assay (M5655, Sigma) after 72-hour treatment by the method described in manufacturer's protocol.
# [4] = test system: Wistar-Logan strain of rats; settings: cited from earlier work
# lung carcinoma = assay: Longevity study on FVB/N mice: spontaneous lung carcinoma at autopsy; format: in vivo, mouse; settings: 18-month
# Description: Body weight is measured bimonthly.
# For monitoring, we planned to sacrifice mice from each group at 6-month, 1-year, 1.5-year and 2-year time-points; the rest of the animals are kept until spontaneous death.
# The results are shown in Table 4 and on FIGS. 19 and 20. Significance levels were calculated with two-sided Chi-square test.
# [5] = test system: male Wistar rats (Charles River); assay: Longevity study: survival of rats treated 3 times a week s.c.; format: in vivo, rat
# Description: Experiments were carried out on male Wistar rats (Charles River) weighing 250-350 g received from the breeding colony of Semmelweis University. The animals were kept in a 12-hour light-dark cycle and under condition of controlled temperature (22±2° C.) and relative humidity (55±5%). Room temperature and relative humidity was checked daily. The rats were maintained on standard laboratory chow and tap water ad libitum. All procedures conformed to the European Convention for the protection of vertebrate animals used for experimental and other scientific purposes. The study was approved by the Animal Ethics Committee of Semmelweis University, Budapest (permission number: 1810/003/2004)
# as §1, §2
# To avoid the mixing of the groups and individuals, saline-treated rats were signed blue from 1 to 40; D-treated rats were signed green from 1 to 80 (1-40: rats treated with 0.1 mg/kg and 41-80: rats treated with 0.001 mg/kg); B-treated rats were signed black from 1 to 80 (1-40: rats treated with 0.05 mg/kg and 41-80: rats treated with 0.0001 mg/kg).
# as §3
# [6] = test system: catecholaminergic neurons; assay: Shuttle box: antagonism of tetrabenazine-induced learning deficit (conditioned avoidance reflex); format: in vivo, rat
# Description: In a modified version of the shuttle box the acquisition of a two-way conditioned avoidance reflex (CAR) was analyzed during 5 consecutive days. The rat was put in a box divided inside into two parts by a barrier with a small gate in the middle, and the animal was trained to cross the barrier under the influence of a conditioned stimulus (CS, light flash). […] One trial consisted of 10 s intertrial interval, followed by 20 s CS. The last 5 s of CS overlaped the 5 s US. At each learning session, the number of CARs, EFs and intersignal reactions (IRs) are automatically counted and evaluated by multi-way ANOVA.
# Tetrabenazine-treatment (1 mg/kg s.c.) depletes at least 90% of norepinephrine and dopamine from their stores in the nerve terminals of the catecholaminergic neurons in the brain stem. Due to the weak performance of the catecholaminergic brain engine, the activation of the cortical neurons remains below the level required for the acquisition of a CAR. The learning deficit caused by tetrabenazine-treatment can be antagonized by the administration of a synthetic CAE substance or an A-type MAO inhibitor, whereas selective inhibition of B-type MAO or inhibition of the reuptake of catecholamines and/or serotonin is ineffective (Knoll et al., 1992).
# Daoy HTB-186 cell line = assay: MTT proliferation assay, Daoy medulloblastoma cells; format: cell-based, human; settings: monotherapy, nine concentrations 10^-14 to 10^-6 M, 72 hours
# Description: as §4, §5, §6, §7
# [7] = shuttle box, 1 mg/kg tetrabenazine s.c.
structure (smiles),measurement,setting,value
"COc1cc2c(cc1OC)C1CC(=O)C(CC(C)C)CN1CC2 (centres unmarked) [Tetrabenazine, Tetrabenazine HCl]",depletion of norepinephrine and dopamine from their stores in the nerve terminals,[1],at least 90%
C#CCN(C)CCCOc1ccc(Cl)cc1Cl [clorgyline],release of [3H]-SER to electrical stimulation,isolated rat brain stem [2]; 250 ng/ml,None of these compounds enhanced the release
NCCNC(=O)c1ccc(Cl)cn1 [lazabemide],release of [3H]-SER to electrical stimulation,isolated rat brain stem [2]; 250 ng/ml,None of these compounds enhanced the release
"C#CCN(C)[C@H](C)Cc1ccccc1 [(−)-Deprenyl, (R)—N-methyl-N-(1-phenylpropan-2-yl)prop-2-yn-1-amine, reference compound]",tumor manifestation suppressing (TMS) effect versus saline,fibromyxosarcoma; 0.001 mg/kg,not significant
same,month of age in which the first animal manifested the tumor,"fibromyxosarcoma; 0.001 mg/kg, N=40",12 month
same,rats in the group manifested the tumor to the end of the 32nd month,"fibromyxosarcoma; 0.001 mg/kg, N=40",15 rats
same,tumor manifestation suppressing (TMS) effect versus saline,"fibromyxosarcoma; 0.1 mg/kg, P<0.01, listed as (−)-deprenyl",significantly decreased
same,tumor manifestation suppressing (TMS) effect versus saline,"fibromyxosarcoma; 0.1 mg/kg, P<0.01, listed as Deprenyl",suppressed the manifestation of the fibromyxosarcoma significantly
same,month of age in which the first animal manifested the tumor,"fibromyxosarcoma; 0.1 mg/kg, N=40",16 month
same,rats in the group manifested the tumor to the end of the 32nd month,"fibromyxosarcoma; 0.1 mg/kg, N=40",11 rats
same,rats manifested the tumor when the group completed the 30th month of life,"fibromyxosarcoma; 0.1 mg/kg, N=40",11 rats
same,span of time from tumor manifestation until death,"fibromyxosarcoma; chronic treatment, versus saline (FIG. 13), One-way ANOVA",no significant difference
same,"released amount of labeled transmitter ([3H]-norepinephrine, [3H]-dopamine or [3H]-serotonin)",isolated rat brain stem [3],significantly higher
same,proliferation of cultured medulloblastoma cells,UW-228-2 cell line; listed as (−)-deprenyl,did not inhibit the proliferation
same,proliferation of cultured medulloblastoma cells,UW-228-2 cell line; listed as Deprenyl,none of the applied concentrations did Deprenyl or BPAP influence the proliferation
same,rats that lived longer than the maximum lifespan ever observed in the strain,"[4]; HP rats, out of 50",17 rats
same,lifespan versus saline treated peers,"[4]; sexually lowest performing (LP) rats, n=49",lived significantly longer than their saline treated peers
same,Number of detected lung carcinoma,"lung carcinoma; 0.001 mg/kg daily, 2 dissected mice",0
same,Number of detected lung carcinoma,"lung carcinoma; 0.1 mg/kg daily, 4 dissected mice",1
same,month of age in which the first animal died,"[5]; 0.001 mg/kg s.c. 3 times a week, N=40",13 month
same,rats remained alive to the end of the 32nd month,"[5]; 0.001 mg/kg, N=40",none
same,month of age in which the first animal died,"[5]; 0.1 mg/kg s.c. 3 times a week, N=40",11 month
same,lifespan compared with saline-treated peers,[5]; both doses of the longevity study (FIGS. 5-8),did not prolong the lifespan of rats significantly
same,dose-effect-relation of the enhancer effect,[6]; shuttle box (FIG. 3),"bi-modal, bell-shaped"
same,optimal dose that exerted the specific enhancer effect,[6]; [7],0.001 mg/kg
same,very high dose range effective in antagonizing the tetrabenazine-induced learning deficit (MAO-A inhibition),[6]; [7],5 to 10 mg/kg
same,proliferation of cultured medulloblastoma cells,Daoy HTB-186 cell line; listed as (−)-deprenyl,did not inhibit the proliferation
same,proliferation of cultured medulloblastoma cells,Daoy HTB-186 cell line; listed as Deprenyl,none of the applied concentrations did Deprenyl or BPAP influence the proliferation
CNCCC(Oc1ccc(C(F)(F)F)cc1)c1ccccc1 (centres unmarked) [fluoxetine],release of [3H]-SER to electrical stimulation,isolated rat brain stem [2]; 50 ng/ml,None of these compounds enhanced the release
